Assay results taken from patent US10745382B2 (BRISTOL-MYERS SQUIBB COMPANY, priority 2015, dated 2020).
pIC50: −log10 of the molar value. Where two headings read alike, the source gives them in different places.

Molecular target: T1, PD-1/PD-L1 (Homo sapiens, UniProt Q9NZQ7)
T1 construct: made in house; host or cells: HEK293T
Experiment: PD-1/PD-L1 Homogenous Time-Resolved Fluorescence (HTRF) binding assay
Settings: PD-L1-His 10 nM, PD-1-Ig 20 nM, read-out: Range or IC50
Outline: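 Read-out is time-resolved FRET between europium cryptate-labelled anti-Ig (1 nM final) and APC-labelled anti-His (20 nM final), both dispensed onto the binding mix. Assay buffer: dPBS containing 0.1% bovine serum albumin and 0.05% Tween-20.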

T1 sequence (Q9NZQ7 with tags, fused parts or gaps): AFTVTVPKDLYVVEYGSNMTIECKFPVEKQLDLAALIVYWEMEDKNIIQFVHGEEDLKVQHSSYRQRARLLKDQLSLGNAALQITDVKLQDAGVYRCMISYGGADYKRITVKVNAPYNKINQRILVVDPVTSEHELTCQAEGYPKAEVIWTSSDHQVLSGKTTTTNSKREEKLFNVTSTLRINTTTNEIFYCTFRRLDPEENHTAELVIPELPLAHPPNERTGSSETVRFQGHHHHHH

With `Cc1c(COc2cc(OCc3cncc(C#N)c3)c(CN3CCCC[C@H]3C(=O)O)cc2Cl)cccc1-c1cccc(OCCCN2CCC[C@@H](C(=O)O)C2)c1C` [Example 2205, (2S)-1-(4-((3′-(3-((R)-3-carboxypiperidin-1-yl)propoxy)-2,2′-dimethylbiphenyl-3-yl)methoxy)-5-chloro-2-((5-cyanopyridin-3-yl)methoxy)benzyl)piperidine-2-carboxylic Acid] as the compound, how does the pIC50 (value given as range class) read?
Its pIC50 is 8.00 to 9.68.

With `Cc1c(COc2cc(OCc3cncc(C#N)c3)c(CN3CCCC[C@H]3C(=O)O)cc2Cl)cccc1-c1cccc(OCCCN2CCCC(CO)C2)c1C` (stereo partly drawn) [Example 2206, (2S)-1-(5-chloro-2-((5-cyanopyridin-3-yl)methoxy)-4-((3′-(3-(3-(hydroxymethyl)piperidin-1-yl)propoxy)-2,2′-dimethylbiphenyl-3-yl)methoxy)benzyl)piperidine-2-carboxylic Acid] as the compound, how does the pIC50 (value given as range class) read?
The pIC50 was 8.00 to 9.68.

`Cc1c(COc2cc(OCc3cncc(C#N)c3)c(CN3CCCC[C@H]3C(=O)O)cc2Cl)cccc1-c1cccc(OCCCN2CCCC(C(N)=O)C2)c1C` (stereo partly drawn) [Example 2207, (2S)-1-(4-((3′-(3-(3-carbamoylpiperidin-1-yl)propoxy)-2,2′-dimethylbiphenyl-3-yl)methoxy)-5-chloro-2-((5-cyanopyridin-3-yl)methoxy)benzyl)piperidine-2-carboxylic Acid] was tested. Which pIC50 (value given as range class) did it give?
The pIC50 was 8.00 to 9.68.

`CCN(CC)C(=O)C1CCCN(CCCOc2cccc(-c3cccc(COc4cc(OCc5cncc(C#N)c5)c(CN5CCCC[C@H]5C(=O)O)cc4Cl)c3C)c2C)C1` (stereo partly drawn) [Example 2208, (2S)-1-(5-chloro-2-((5-cyanopyridin-3-yl)methoxy)-4-((3′-(3-(3-(diethylcarbamoyl)piperidin-1-yl)propoxy)-2,2′-dimethylbiphenyl-3-yl)methoxy)benzyl)piperidine-2-carboxylic Acid] was tested. Which pIC50 (value given as range class) did it give?
The pIC50 was 8.00 to 9.68.

With `Cc1c(COc2cc(OCc3cncc(C#N)c3)c(CN3CCCC[C@H]3C(=O)O)cc2Cl)cccc1-c1cccc(OCCCN[C@@H](Cc2ccncc2)C(=O)O)c1C` [Example 2209, (2S)-1-(4-((3′-(3-((S)-1-carboxy-2-(pyridin-4-yl)ethylamino)propoxy)-2,2′-dimethylbiphenyl-3-yl)methoxy)-5-chloro-2-((5-cyanopyridin-3-yl)methoxy)benzyl)piperidine-2-carboxylic Acid] as the compound, how does the pIC50 (value given as range class) read?
Its pIC50 is 7.00 to 8.00.

`Cc1c(COc2cc(OCc3cncc(C#N)c3)c(CN3CCCC[C@H]3C(=O)O)cc2Cl)cccc1-c1cccc(OCCCNCCc2ccncc2)c1C` [Example 2210, (2S)-1-(5-chloro-2-((5-cyanopyridin-3-yl)methoxy)-4-((2,2′-dimethyl-3′-(3-(2-(pyridin-4-yl)ethylamino)propoxy)biphenyl-3-yl)methoxy)benzyl)piperidine-2-carboxylic Acid] was tested. Which pIC50 (value given as range class) did it give?
The pIC50 was 8.00 to 9.68.

With `Cc1c(COc2cc(OCc3cncc(C#N)c3)c(CN3CCCC[C@H]3C(=O)O)cc2Cl)cccc1-c1cccc(OCCCN2CCN(CCO)CC2)c1C` [Example 2211, (2S)-1-(5-chloro-2-((5-cyanopyridin-3-yl)methoxy)-4-((3′-(3-(4-(2-hydroxyethyl)piperazin-1-yl)propoxy)-2,2′-dimethylbiphenyl-3-yl)methoxy)benzyl)piperidine-2-carboxylic Acid] as the compound, how does the pIC50 (value given as range class) read?
Its pIC50 is 8.00 to 9.68.

`Cc1c(COc2cc(OCc3cncc(C#N)c3)c(CN3CCCC[C@H]3C(=O)O)cc2Cl)cccc1-c1cccc(OCCCN2CCOCC2)c1C` [Example 2212, (2S)-1-(5-chloro-2-((5-cyanopyridin-3-yl)methoxy)-4-((2,2′-dimethyl-3′-(3-morpholinopropoxy)biphenyl-3-yl)methoxy)benzyl)piperidine-2-carboxylic Acid] was tested. Which pIC50 (value given as range class) did it give?
The pIC50 was 8.00 to 9.68.

`Cc1c(COc2cc(OCc3cncc(C#N)c3)c(CN3CCCC[C@H]3C(=O)O)cc2Cl)cccc1-c1cccc(OCCCN2CCCCC2)c1C` [Example 2213, (2S)-1-(5-chloro-2-((5-cyanopyridin-3-yl)methoxy)-4-((2,2′-dimethyl-3′-(3-(piperidin-1-yl)propoxy)biphenyl-3-yl)methoxy)benzyl)piperidine-2-carboxylic Acid] was tested. Which pIC50 (value given as range class) did it give?
Its pIC50 is 8.00 to 9.68.

With `Cc1c(COc2cc(OCc3cncc(C#N)c3)c(CN3CCCC[C@H]3C(=O)O)cc2Cl)cccc1-c1cccc(OCCCN2CCC(CO)CC2)c1C` [Example 2214, (2S)-1-(5-chloro-2-((5-cyanopyridin-3-yl)methoxy)-4-((3′-(3-(4-(hydroxymethyl)piperidin-1-yl)propoxy)-2,2′-dimethylbiphenyl-3-yl)methoxy)benzyl)piperidine-2-carboxylic Acid] as the compound, how does the pIC50 (value given as range class) read?
Its pIC50 is 8.00 to 9.68.

With `CC(=O)NC1CCN(CCCOc2cccc(-c3cccc(COc4cc(OCc5cncc(C#N)c5)c(CN5CCCC[C@H]5C(=O)O)cc4Cl)c3C)c2C)C1` (stereo partly drawn) [Example 2215, (2S)-1-(4-((3′-(3-(3-acetamidopyrrolidin-1-yl)propoxy)-2,2′-dimethylbiphenyl-3-yl)methoxy)-5-chloro-2-((5-cyanopyridin-3-yl)methoxy)benzyl)piperidine-2-carboxylic Acid] as the compound, how does the pIC50 (value given as range class) read?
The pIC50 was 8.00 to 9.68.

How did the pIC50 (numeric IC50) turn out when `Cc1c(COc2cc(OCc3cncc(C#N)c3)c(CN3CCCC[C@H]3C(=O)O)cc2Cl)cccc1-c1cccc(OCCCN2CCN(c3ccccn3)CC2)c1C` [Example 2216, (2S)-1-(5-chloro-2-((5-cyanopyridin-3-yl)methoxy)-4-((2,2′-dimethyl-3′-(3-(4-(pyridin-2-yl)piperazin-1-yl)propoxy)biphenyl-3-yl)methoxy)benzyl)piperidine-2-carboxylic Acid] was run?
The pIC50 was 7.52.

With `Cc1c(COc2cc(OCc3cncc(C#N)c3)c(CN3CCCC[C@H]3C(=O)O)cc2Cl)cccc1-c1cccc(OCCCN2CCN(CC(=O)NC(C)C)CC2)c1C` [Example 2217, (2S)-1-(5-chloro-2-((5-cyanopyridin-3-yl)methoxy)-4-((3′-(3-(4-(2-(isopropylamino)-2-oxoethyl)piperazin-1-yl)propoxy)-2,2′-dimethylbiphenyl-3-yl)methoxy)benzyl)piperidine-2-carboxylic Acid] as the compound, how does the pIC50 (value given as range class) read?
Its pIC50 is 8.00 to 9.68.

`Cc1c(COc2cc(OCc3cncc(C#N)c3)c(CN3CCCC[C@H]3C(=O)O)cc2Cl)cccc1-c1cccc(OCCCN(C)CCc2ccccc2)c1C` [Example 2218, (2S)-1-(5-chloro-2-((5-cyanopyridin-3-yl)methoxy)-4-((2,2′-dimethyl-3′-(3-(methyl(phenethyl)amino)propoxy)biphenyl-3-yl)methoxy)benzyl)piperidine-2-carboxylic Acid] was tested. Which pIC50 (value given as range class) did it give?
Its pIC50 is 8.00 to 9.68.

How did the pIC50 (value given as range class) turn out when `COc1ccccc1N1CCN(CCCOc2cccc(-c3cccc(COc4cc(OCc5cncc(C#N)c5)c(CN5CCCC[C@H]5C(=O)O)cc4Cl)c3C)c2C)CC1` [Example 2219, (2S)-1-(5-chloro-2-((5-cyanopyridin-3-yl)methoxy)-4-((3′-(3-(4-(2-methoxyphenyl)piperazin-1-yl)propoxy)-2,2′-dimethylbiphenyl-3-yl)methoxy)benzyl)piperidine-2-carboxylic Acid] was run?
Its pIC50 is 8.00 to 9.68.

How did the pIC50 (value given as range class) turn out when `Cc1c(COc2cc(OCc3cncc(C#N)c3)c(CN3CCCC[C@H]3C(=O)O)cc2Cl)cccc1-c1cccc(OCCCNC[C@H](O)c2ccccc2)c1C` [Example 2220, (2S)-1-(5-chloro-2-((5-cyanopyridin-3-yl)methoxy)-4-((3′-(3-((R)-2-hydroxy-2-phenylethylamino)propoxy)-2,2′-dimethylbiphenyl-3-yl)methoxy)benzyl)piperidine-2-carboxylic Acid] was run?
The pIC50 was 8.00 to 9.68.

With `Cc1c(COc2cc(OCc3cncc(C#N)c3)c(CN3CCCC[C@H]3C(=O)O)cc2Cl)cccc1-c1cccc(OCCCNC[C@@H](O)c2ccccc2)c1C` [Example 2221, (2S)-1-(5-chloro-2-((5-cyanopyridin-3-yl)methoxy)-4-((3′-(3-((S)-2-hydroxy-2-phenylethylamino)propoxy)-2,2′-dimethylbiphenyl-3-yl)methoxy)benzyl)piperidine-2-carboxylic Acid] as the compound, how does the pIC50 (value given as range class) read?
Its pIC50 is 8.00 to 9.68.

With `Cc1c(COc2cc(OCc3cncc(C#N)c3)c(CN3CCCC[C@H]3C(=O)O)cc2Cl)cccc1-c1cccc(OCCCNCC(O)c2ccccn2)c1C` (stereo partly drawn) [Example 2222, (2S)-1-(5-chloro-2-((5-cyanopyridin-3-yl)methoxy)-4-((3′-(3-(2-hydroxy-2-(pyridin-2-yl)ethylamino)propoxy)-2,2′-dimethylbiphenyl-3-yl)methoxy)benzyl)piperidine-2-carboxylic Acid] as the compound, how does the pIC50 (value given as range class) read?
The pIC50 was 8.00 to 9.68.

With `Cc1c(COc2cc(OCc3cncc(C#N)c3)c(CN3CCCC[C@H]3C(=O)O)cc2Cl)cccc1-c1cccc(OCCCN2CCC[C@@H](O)C2)c1C` [Example 2223, (2S)-1-(5-chloro-2-((5-cyanopyridin-3-yl)methoxy)-4-((3′-(3-((R)-3-hydroxypiperidin-1-yl)propoxy)-2,2′-dimethylbiphenyl-3-yl)methoxy)benzyl)piperidine-2-carboxylic Acid] as the compound, how does the pIC50 (value given as range class) read?
The pIC50 was 8.00 to 9.68.

How did the pIC50 (value given as range class) turn out when `Cc1c(COc2cc(OCc3cncc(C#N)c3)c(CN3CCCC[C@H]3C(=O)O)cc2Cl)cccc1-c1cccc(OCCCN2CCC[C@H](O)C2)c1C` [Example 2224, (2S)-1-(5-chloro-2-((5-cyanopyridin-3-yl)methoxy)-4-((3′-(3-((S)-3-hydroxypiperidin-1-yl)propoxy)-2,2′-dimethylbiphenyl-3-yl)methoxy)benzyl)piperidine-2-carboxylic Acid] was run?
The pIC50 was 8.00 to 9.68.

`Cc1c(COc2cc(OCc3cncc(C#N)c3)c(CN3CCCC[C@H]3C(=O)O)cc2Cl)cccc1-c1cccc(OCCCNCCc2ccccn2)c1C` [Example 2225, (2S)-1-(5-chloro-2-((5-cyanopyridin-3-yl)methoxy)-4-((2,2′-dimethyl-3′-(3-(2-(pyridin-2-yl)ethylamino)propoxy)biphenyl-3-yl)methoxy)benzyl)piperidine-2-carboxylic Acid] was tested. Which pIC50 (value given as range class) did it give?
Its pIC50 is 8.00 to 9.68.

How did the pIC50 (value given as range class) turn out when `Cc1c(COc2cc(OCc3cncc(C#N)c3)c(CN3CCCC[C@H]3C(=O)O)cc2Cl)cccc1-c1cccc(OCCCN(C)Cc2cccnc2)c1C` [Example 2226, (2S)-1-(5-chloro-2-((5-cyanopyridin-3-yl)methoxy)-4-((2,2′-dimethyl-3′-(3-(methyl(pyridin-3-ylmethyl)amino)propoxy)biphenyl-3-yl)methoxy)benzyl)piperidine-2-carboxylic Acid] was run?
The pIC50 was 8.00 to 9.68.
